Values after ≈ are worked out from the molar mass of the structure shown. Read-outs that look alike come from different tables or passages of the source. *1 amine or outer side, *2 acyl side, *3 side chain or, on linkers, in order; H or OH if unused. Where a SMILES comes first, the peptide text is derived from it. Bridges are numbered along the chain shown (N, C = ends). Roman numbers before positions name the chains, in order. [ ]: non-standard residue; d: D form. The star is where a group is joined. X5 = C#CCOCCOCCOCCOCCN1C[C@@H](C(=O)[*:1])[C@H](C(=O)[*:2])C1; X2 = O=C([C@@H](N[*:1])[C@H](O)CCC(F)(F)F)[*:2]; Propargyl(OCH2CH2)4CO = C#CCOCCOCCOCCOCCC(=O)*; X3 = CCCCC[C@@H](O)[C@H](N[*:1])C(=O)[*:2]; azaDab = NCCN(N[*:1])C(=O)[*:2]; Aoc(2) = CCCCCC[C@H](N)C(=O)O; hLeu = CC(C)CC[C@H](N)C(=O)O; Nle = CCCC[C@H](N)C(=O)O; Dab = NCC[C@H](N)C(=O)O; azaGly = NNC(=O)O
How the values were obtained:
[1] = tested on: Ab 19606 (COLhet^R); assay type: cell-based, Acinetobacter baumannii; details: media CA-MHB
[2] = tested on: Ab 8990 (COL^R); assay type: cell-based, Acinetobacter baumannii
Summary of the method: (§1)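 Twofold dilution series of each agent received bacterial cells from MHA plates (saline, ~0.1 OD600 nm), with RPMI B medium used for drug conjugates. Plates were shaken and held at 35° C overnight (16-20 h). LES431 was tested in presence and absence of 50% heat-inactivated fetal bovine serum.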

[3] = tested on: Ab AB5075; assay type: cell-based, Acinetobacter baumannii; details: for MIC in RPMI AB 5075: pH 7.4
Summary of the method: as §1

[4] = tested on: Ab AB58705 (COL^R) IpxD, mut. (no LPS); assay type: cell-based, Acinetobacter baumannii; details: media CA-MHB
[5] = tested on: A. baumannii AB5075; experiment: Lethal A. baumannii lung infection (mouse pneumonia) model, survival; assay type: in vivo, Acinetobacter baumannii; details: mouse pneumonia model vs. AB5075; 5 mg/kg, twice intravenously, t=+1 h and +4 h; n=5
[6] = tested on: LPS from E. coli O111:B4; experiment: LPS binding/neutralization by Limulus Amebocyte Lysate (LAL) assay; assay type: biochemical; details: LPS 1-10,000 ng/mL, test article 0.25-10 μM; sum of AUCs relative to maximal AUC (Table 15)
Method: The LAL assay (Charles River) was used to determine the binding affinity of test articles to LPS.
(§2) For the assay, 25 μL purified LPS from E. coli O111:1B4 (Sigma) at doses ranging from 1-10,000 ng/mL were incubated with 25 μL of test article at concentrations ranging from 0.25-10 NM. After 5 min incubation at 37° C., 50 μL of LAL reagent, which reacts with lipid A portion from LPS, was added to corresponding wells. After 15 min, absorbance at 405 nm was read on EnSpire plate reader (Perkin Elmer). The % LPS neutralization is calculated relative to a PBS control (background) and LPS control at each concentration (positive control).
LPS neutralization=(1−(absorbance test article−PBS with LAL reagent)/(absorbance no test article−PBS with LAL reagent))×100
To obtain a single value of LPS neutralization for each test article, the area under the curve (AUC) for dose-response of test articles from […] for each LPS concentration was calculated using Prism 7 software. The % LPS neutralization is the sum of the AUCs for each LPS concentration determined relative to the maximal AUC achievable×100.
as §2, with “O111:B4” for “O111:1B4”, “μM.” for “NM.”

[7] = tested on: Sa RN; assay type: cell-based

Work on `C#CCOCCOCCOCCOCCC(=O)N[C@@H](CCC(C)C)C(=O)N[C@@H](CCN)C(=O)N[C@H](C(=O)NNC(=O)N[C@H]1CCNC(=O)[C@H]([C@@H](C)O)NC(=O)[C@H](CCN)NC(=O)[C@H](CCN)NC(=O)[C@H](CC(C)C)NC(=O)[C@@H](Cc2ccccc2)NC(=O)[C@H](CCN)NC1=O)[C@H](O)CCCCC` [Int-116] ({Propargyl(OCH2CH2)4CO}-[hLeu][Dab][X3][azaGly][Dab][Dab][dF]L[Dab][Dab]T; lactam 5-C) yielded an MIC [1] of 1 µg/mL (≈ 0.691 µM), an MIC ([2]; Ab 8990 (COL^R), media CA-MHB) greater than 128 µg/mL and an MIC [3] of 1 µg/mL (≈ 0.691 µM). For the same compound, the “MIC in RPMI AB 5075” value [3] was 1.05 µg/mL (≈ 0.726 µM), the MIC [4] was 64 µg/mL (≈ 44.2 µM) and the “protection (survival over 5 days), FIG. 118” value [5] was 100%. For the same compound, the “% LPS neutralization” value [6] was 33.2% and the MIC [7] was greater than 128 µg/mL.
With `C#CCOCCOCCOCCOCCC(=O)N[C@@H](CCCCCC)C(=O)N[C@@H](CCN)C(=O)N[C@H](C(=O)N[C@@H](CCN)C(=O)N[C@H]1CCNC(=O)[C@H]([C@@H](C)O)NC(=O)[C@H](CCN)NC(=O)[C@H](CCN)NC(=O)[C@H](CC(C)C)NC(=O)[C@@H](Cc2ccccc2)NC(=O)[C@H](CCN)NC1=O)[C@H](O)CCC(F)(F)F` [Int-118] ({Propargyl(OCH2CH2)4CO}-[Aoc(2)][Dab][X2][Dab][Dab][Dab][dF]L[Dab][Dab]T; lactam 5-C) the MIC [2] was 128 µg/mL (≈ 83.7 µM), the MIC [3] was 1 µg/mL (≈ 0.654 µM) and the “MIC in RPMI AB 5075” value [3] was 0.95 µg/mL (≈ 0.621 µM). For the same compound, the “protection (survival over 5 days), FIG. 118” value [5] was 40%, the “% LPS neutralization” value [6] was 59.0% and the MIC [7] was greater than 128 µg/mL.
Work on `C#CCOCCOCCOCCOCCN1C[C@@H](C(=O)N[C@@H](CCCC)C(=O)N[C@@H](CCN)C(=O)N[C@H](C(=O)NNC(=O)N[C@H]2CCNC(=O)[C@H]([C@@H](C)O)NC(=O)[C@H](CCN)NC(=O)[C@H](CCN)NC(=O)[C@H](CC(C)C)NC(=O)[C@@H](Cc3ccccc3)NC(=O)[C@H](CCN)NC2=O)[C@@H](C)O)[C@H](C(=O)N[C@@H](CCCC)C(=O)N[C@@H](CCN)C(=O)N[C@H](C(=O)NNC(=O)N[C@H]2CCNC(=O)[C@H]([C@@H](C)O)NC(=O)[C@H](CCN)NC(=O)[C@H](CCN)NC(=O)[C@H](CC(C)C)NC(=O)[C@@H](Cc3ccccc3)NC(=O)[C@H](CCN)NC2=O)[C@@H](C)O)C1` [Int-120] (I: [Nle][Dab]T[azaGly][Dab][Dab][dF]L[Dab][Dab]T / II: [Nle][Dab]T[azaGly][Dab][Dab][dF]L[Dab][Dab]T; lactam I:5-I:C, II:5-II:C; linker I:N-II:N via X5) yielded an MIC [1] of 2 µg/mL (≈ 0.767 µM), an MIC ([2]; Ab 8990 (COL^R), media CA-MHB) greater than 128 µg/mL and an MIC ([3]; Ab AB5075, media CA-MHB) of 2 µg/mL (≈ 0.767 µM). The MIC [4] was 4 µg/mL (≈ 1.53 µM), the “% LPS neutralization” value [6] was 68.0% and the MIC [7] was greater than 128 µg/mL.
With `C#CCOCCOCCOCCOCCC(=O)N[C@@H](CCC(C)C)C(=O)N[C@@H](CCN)C(=O)N[C@H](C(=O)NN(CCN)C(=O)N[C@H]1CCNC(=O)[C@H]([C@@H](C)O)NC(=O)[C@H](CCN)NC(=O)[C@H](CCN)NC(=O)[C@H](CC(C)C)NC(=O)[C@@H](Cc2ccccc2)NC(=O)[C@H](CCN)NC1=O)[C@@H](C)O` [Int-127] ({Propargyl(OCH2CH2)4CO}-[hLeu][Dab]T[azaDab][Dab][Dab][dF]L[Dab][Dab]T; lactam 5-C) the MIC [1] was 2 µg/mL (≈ 1.39 µM), the MIC ([2]; Ab 8990 (COL^R), media CA-MHB) was greater than 128 µg/mL and the MIC [3] was 2 µg/mL (≈ 1.39 µM). The “MIC in RPMI AB 5075” value [3] was 1.00 µg/mL (≈ 0.697 µM), the MIC [4] was 64 µg/mL (≈ 44.6 µM) and the “% LPS neutralization” value [6] was 13.0%. For the same compound, the MIC [7] was greater than 128 µg/mL.
For `C#CCOCCOCCOCCOCCC(=O)N[C@@H](CCCCCC)C(=O)N[C@@H](CCN)C(=O)N[C@H](C(=O)NN(CCN)C(=O)N[C@H]1CCNC(=O)[C@H]([C@@H](C)O)NC(=O)[C@H](CCN)NC(=O)[C@H](CCN)NC(=O)[C@H](CC(C)C)NC(=O)[C@@H](Cc2ccccc2)NC(=O)[C@H](CCN)NC1=O)[C@@H](C)O` [Int-129] ({Propargyl(OCH2CH2)4CO}-[Aoc(2)][Dab]T[azaDab][Dab][Dab][dF]L[Dab][Dab]T; lactam 5-C), the MIC [2] was 128 µg/mL (≈ 88.4 µM), the MIC [3] was 2 µg/mL (≈ 1.38 µM) and the “protection (survival over 5 days), FIG. 119” value [5] was 60%. The “% LPS neutralization” value [6] was 23.0% and the MIC [7] was greater than 128 µg/mL.

From patent US20230165970A1, “COMPOSITIONS AND METHODS FOR THE TREATMENT OF BACTERIAL INFECTIONS” (priority 2017, published 2023)
